Source: patent US8178506B2, “Oligomeric compounds and compositions for use in modulation of small non-coding RNAs” (Regulus Therapeutics Inc., priority 2003, dated 2012)
In the oligonucleotide strings, read from the 5' end, every base follows the letter of its sugar. An asterisk marks phosphorothioate; unmarked linkages are phosphodiester. Other units and linkages are bracketed, terminal groups are in braces. A string of capitals states the bases alone. e = 2'-O-(2-methoxyethyl) (MOE); [5mC] = 5-methylcytosine

Assays:
Assay type in all cases: cell-based, human
[1] = tested on: differentiated adipocytes; assay: Hallmark genes and triglycerides in differentiated adipocytes; conditions: Table 28; differentiated adipocytes transfected day nine post-differentiation; 250 nM oligonucleotide
Description: The effect of the oligomeric compounds of the present invention targeting miRNAs on the expression of markers of cellular differentiation was examined in differentiated adipocytes.
As previously described, the HSL, aP2, Glut4, and PPARγ genes play important rolls in the uptake of glucose and the metabolism and utilization of fats. Also as previously described, an increase in triglyceride content is another well-established marker for adipocyte differentiation. Human white preadipocytes (Zen-Bio Inc., Research Triangle Park, N.C.) were grown in preadipocyte media (ZenBio Inc.). After the cells reached confluence (approximately three days), they were exposed to differentiation media (Zen-Bio, Inc.) containing a PPAR-γ agonist, IBMX, dexamethasone, and insulin for three days. Cells were then fed Adipocyte Medium (Zen-Bio, Inc.), which was replaced at 2 to 3 day intervals. One day before transfection, 96-well plates were seeded with 3000 cells/well. Cells were then transfected on day nine post-differentiation, according to standard published procedures with 250 nM oligonucleotide in LIPOFECTIN™ (Invitrogen Corporation, Carlsbad, Calif.) (Monia et al., J. Biol. Chem. 1993 268(19):14514-22). Oligomeric compounds were tested in triplicate on each 96-well plate, and the effect of TNF-α, known to inhibit adipocyte differentiation, was also measured in triplicate. Oligomeric compound treatments and transfectant-only negative controls may be measured up to six times per plate. On day twelve post-differentiation, cells were washed and lysed at room temperature, and the expression of the four hallmark genes, HSL, aP2, Glut4, and PPARγ, as well as triglyceride (TG) accumulation were measured in adipocytes transfected with the uniform 2′-MOE phosphorothioate (PS) previously described in Example 13 as well as the chimeric gapmer oligomeric compounds targeting the mir-143 miRNA and the mir-143 pri-miRNA described in Example 16. On day twelve post-differentiation, cells were lysed in a guanadinium-containing buffer and total RNA was harvested. The amount of total RNA in each sample was determined using a Ribogreen Assay (Molecular Probes, Eugene, Oreg.). Real-time PCR was performed on the total RNA using primer/probe sets for the adipocyte differentiation hallmark genes Glut4, HSL, aP2, and PPARγ. Triglyceride levels as well as mRNA levels for each of the four adipocyte differentiation hallmark genes are expressed relative to control levels (control=treatment with ISIS-29848 (SEQ ID NO: 737)).

[2] = tested on: leptin; assay: Leptin secretion by adipocytes (ELISA); conditions: adipocytes, 250 nM oligomeric compound, day nine post-transfection, relative to control (1.0); Table 16
[3] = tested on: preadipocytes; assay: Caspase assay in preadipocytes; conditions: untreated control set equal to 1.0
Description: The effect of oligomeric compounds of the present invention targeting miRNAs was examined in preadipocytes (Zen-Bio, Inc., Research Triangle Park, N.C.) using the fluorometric caspase assay previously described in Example 11.

Row | Substance | Glut4 [1] | HSL [1] | PPAR gamma [1] | TG [1] | aP2 [1] | Leptin (secretion) [2] | Fold Increase over UTC (caspase activity) [3]
1 | 327941 (antisense eA*eA*e[5mC]*e[5mC]*e[5mC]*eA*e[5mC]*e[5mC]*eG*eA*e[5mC]*eA*eG*e[5mC]*eA*eA*eT*eG*eA*eA*eT*eG*eT*eT) [compound 327941] | 0.90 | 1.17 | 1.66 | 1.33 | 0.90 | 0.54 | 1.3 fold over UTC
2 | 327890 (antisense eA*eG*e[5mC]*eA*e[5mC]*eA*eA*eA*e[5mC]*eT*eA*e[5mC]*eT*eA*e[5mC]*e[5mC]*eT*e[5mC]*eA) [compound 327890] | 0.37 | 0.42 | 1.05 | 1.13 | 0.35 | 1.36 | 1.3 fold over UTC
3 | 327901 (antisense eT*eG*eA*eG*e[5mC]*eT*eA*e[5mC]*eA*eG*eT*eG*e[5mC]*eT*eT*e[5mC]*eA*eT*e[5mC]*eT*e[5mC]*eA) [compound 327901] | 2.20 | 1.47 | 1.34 | 1.12 | 1.28 | 1.02 | 2.0 fold over UTC
4 | 327889 (antisense eG*eT*eG*eG*eT*eA*eA*eT*e[5mC]*e[5mC]*e[5mC]*eT*eG*eG*e[5mC]*eA*eA*eT*eG*eT*eG*eA*eT) [compound 327889] | 0.99 | 0.77 | 1.63 | 1.09 | 1.12 | 1.05 | 1.1 fold over UTC
5 | 327903 (antisense eA*eA*e[5mC]*eT*eA*eT*eA*e[5mC]*eA*eA*e[5mC]*e[5mC]*eT*eA*e[5mC]*eT*eA*e[5mC]*e[5mC]*eT*e[5mC]*eA) [compound 327903] | 0.36 | 0.53 | 0.91 | 1.12 | 0.56 | 1.61 | 1.6 fold over UTC
